Experimental data: the METLIN SMRT retention time set (Domingo-Almenara et al. 2019)

Assay: gradient 5% acetonitrile 3 min, to 50% in 2 min, to 85% in 15 min, held 3 min, 100 µL/min
Settings: column: Zorbax Extend-C18 2.1 x 50 mm; eluents: water / acetonitrile, 0.1% formic acid
How it was run: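 Mixtures of ~100 pure standards were chromatographed on a Zorbax Extend-C18 column (2.1 × 50 mm, 1.8 μm) at 100 μL/min using water and acetonitrile, each with 0.1% formic acid. Detection used a quadrupole time-of-flight mass spectrometer in positive and negative ionization mode, and data collection spanned 3 months. Retention time was obtained from adduct peaks picked computationally and each checked manually.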

Structure (SMILES) | RP-LC retention time
COc1cccc(-c2nnc(NC(=O)C3CCCCC3)o2)c1 | 753 s
O=C(NCc1cc(F)ccc1F)C1CCN(c2nnc(-c3ccccc3)o2)CC1 | 819 s
O=C(NCc1ccncc1)C1CC(=O)N(c2ccc3c(c2)CCN3C(=O)C2CC2)C1 (stereo unspecified) | 573 s
Cc1cc(C)cc(N2C(=O)C3N=NN(c4ccc(C)c(Cl)c4)C3C2=O)c1 (stereo unspecified) | 1170 s
CCC(C)Sc1nnc(NC(=O)C2CCN(C(=O)c3ccccc3F)CC2)s1 (stereo unspecified) | 871 s
COC(=O)c1ncn2c1C(=O)N(c1ccc(C)c(C)c1)C(C)(C(=O)NCc1ccccc1)C2 (stereo unspecified) | 735 s
Cc1cccc(CN2C[C@@H]3C(=O)N(CCCN4CCCC4=O)C(=O)[C@@H]3C2)c1 | 589 s
CCC(C)OC(=O)C1=C(C)NC(=O)NC1c1ccc(O)c(OC)c1 (stereo unspecified) | 677 s
O=C(CSc1nnnn1-c1ccccc1)c1ccc(Cl)c(Cl)c1 | 1060 s
COc1ccccc1CNS(=O)(=O)c1cccc(-c2nc(-c3ccccc3)no2)c1 | 1150 s
O=C(Cc1c(F)cccc1Cl)N1CCN(c2cc(-c3cccs3)[nH]n2)CC1 | 840 s
Cc1ccc(C(=O)Nc2ccc(N3CCN(c4ccccc4)C3=O)nc2)cc1C | 1070 s
Clc1ccc(-c2nc3ccc(Cl)cn3c2Nc2ccc3c(c2)OCO3)cc1 | 926 s
CCOCC(=O)Nc1cccc(OCc2nnc(-c3ccc(OC)cc3)o2)c1 | 830 s
COCCCNC(=O)C1CCCN(C(=O)c2cc(C)cc(C)c2)C1 (stereo unspecified) | 700 s
CCCN1CCN(C(=O)CN2C(=O)C(C)(C)c3cc(C)ccc32)CC1 | 624 s
CC(C)(NS(=O)(=O)c1ccc(Oc2ccc(F)cc2)cc1)C(=O)NO | 804 s
CC(=O)Nc1ccc(C2(C(=O)NCc3ccc(F)cc3)CCC2)cc1 | 748 s
CCS(=O)(=O)N1CCCc2cc(C(=O)N3CCCCCC3)ccc21 | 824 s
Cc1cccnc1NC(=O)c1c[nH]c2c(C(F)(F)F)cccc2c1=O | 573 s
O=C(CCc1ccccc1)NC1CCN(c2nnc3ccccn23)CC1 | 633 s
CCn1c(C(=O)N(C)c2ccc(Br)cc2)cc2c(=O)oc3ccccc3c21 | 1030 s

Structure (SMILES) | RP-LC retention time
COc1ccc(Nc2nc(-c3ccc(OC)cc3)c(CCC(=O)O)s2)cc1 | 756 s
CCCCNC(=O)CC1CCN(C(=O)c2[nH]c(C)cc2C)CC1 | 719 s
O=C1[C@H]2CN(Cc3cc(F)c(F)c(F)c3)C[C@H]2C(=O)N1CCc1ccccc1 | 982 s
CC1CC(=O)c2cnn(-c3nc4ccccc4[nH]3)c2C1 (stereo unspecified) | 761 s
Cc1nc(C(=O)Nc2ccc(Cl)cc2C)c(C)o1 | 1030 s
Cc1c(Cl)cccc1NC(=O)c1ccc(-n2ccnc2)nn1 | 652 s
Cc1ccc(CNC(=O)NCCC2CCN(S(=O)(=O)c3ccccc3)CC2)cc1 | 877 s
CCOC(=O)CNC(=O)Nc1ccc2c(c1)oc(=O)n2CC | 659 s
CCN1C[C@]2(COC)CC[C@H](OC)[C@]34C5C[C@@H]6[C@@H](OC)C[C@@]7(OCOC7(C13)[C@@H](O)C24)C5[C@H]6OC (stereo partly specified) | 614 s
Cc1ccccc1OCC(=O)Nc1cc2c(cc1Oc1ccccc1)n(C)c(=O)c(=O)n2C | 939 s
CCCCOC(=O)COc1cc(O)c2c(=O)cc(-c3ccccc3)oc2c1 | 1230 s
CCc1nc2ccccc2c(=O)n1Cc1noc(COc2ccc(OC)cc2)n1 | 921 s
Cc1ccc(-c2ccnc3c(C(=O)NC(C)c4ccncc4)cnn23)cc1C (stereo unspecified) | 668 s
O=C(Nc1ccccc1)N1CCC(n2cnc3c(Cl)cccc3c2=O)CC1 | 784 s
Cn1nccc1C(=O)Nc1sc(-c2ccccc2)cc1C(N)=O | 810 s
CCN1CCCn2cc(S(=O)(=O)Nc3cccc(OC)c3)cc2C1=O | 698 s
CCOc1ccc(NC(=O)CN2C(=O)CCc3cc(Br)ccc32)cc1 | 926 s
COc1ccc(-c2cc(C(=O)N3CCN(S(=O)(=O)c4ccc(OC)c(OC)c4)CC3)[nH]n2)cc1 | 795 s
CC(NC(=O)COc1ccccc1)C(=O)N1CCN(c2ccccn2)CC1 (stereo unspecified) | 602 s
O=C(NC1CCCCCC1)c1ccc2ncnc(N3CCCC3)c2c1 | 675 s
COc1cccc(CNC(=O)CN2CCc3[nH]c4c(OC)ccc(Cl)c4c(=O)c3C2)c1 | 618 s

Other lines, results leading:

RP-LC retention time | Structure (SMILES)
763 s | Cc1cc(Nc2ccccc2)nc(N2CCN(C(=O)Nc3cccc(Cl)c3)CC2)n1
914 s | O=C(Nc1nc2c(s1)CCc1ccccc1-2)Nc1c(F)cccc1F
942 s | Cc1ccc(SCC(=O)N2CCN(c3ccccc3)CC2)cc1
982 s | Cc1ccc(-c2csc(-n3nc(C)c(CC(=O)Nc4cc(Cl)ccc4C)c3C)n2)cc1
641 s | CS(=O)(=O)N1CCCCC1C(=O)Nc1nnc(-c2ccco2)o1 (stereo unspecified)
699 s | CCOc1ccc(NC(=O)C2CCN(S(=O)(=O)c3cn(C)cn3)CC2)cc1
893 s | Cn1cc(C2=CCN(S(=O)(=O)c3cccc4nsnc34)CC2)c2cccnc21
600 s | O=S(=O)(Nc1ccc(-c2cn3ccccc3n2)cc1)c1ccccc1
680 s | COc1ccccc1C(=O)NCCn1cc(SCC(N)=O)c2ccccc21
670 s | CCc1ccccc1NC(=O)N1CCN(c2cc(C)nc(N3CCCC3)n2)CC1
788 s | O=C(CC1COc2ccccc2NC1=O)Nc1ccc(F)c(Cl)c1 (stereo unspecified)
885 s | COc1ccccc1-c1nnc(-c2cccc(S(=O)(=O)N3CCCC3)c2)o1
762 s | CCC(=O)Nc1ccc(-n2cnc(C(=O)NCc3ccc(F)cc3Cl)c2)nc1
1160 s | CCc1ccc(-n2ncc3c(=O)n(Cc4nc(-c5ccccc5)no4)cnc32)cc1
594 s | CCc1nc2cc(N3CCCC(C(=O)NCCN4CCOCC4)C3)cnc2nc1CC (stereo unspecified)
736 s | COCc1nncn1C1CCN(S(=O)(=O)c2cc(Cl)ccc2OC)CC1
796 s | COc1ccccc1OCCN1C(=O)C2(CCOCC2)CC1c1nnnn1C(C)(C)C (stereo unspecified)
814 s | Cc1cc2nc(SCc3noc(CCC(=O)Nc4nc(-c5ccccc5)cs4)n3)[nH]c2cc1C
1280 s | Cc1ccc(S(=O)(=O)N2CCCC2c2nc(-c3cccc(Cl)c3)no2)cc1F (stereo unspecified)
696 s | CCCN(C)c1nccn2c(=O)n(CC(=O)Nc3cc(C)ccc3C)nc12
628 s | O=C(CCN(CC1CCCO1)C(=O)c1ccc(C(F)(F)F)cc1)N1CCNCC1 (stereo unspecified)
981 s | CCOc1ccc(C2c3[nH]c4ccccc4c3CCN2C(=O)COC)cc1 (stereo unspecified)
767 s | Cc1ccc(CN2C(=O)NC3(CCN(C(=O)c4ccc[nH]4)CC3)C2=O)cc1
847 s | COc1ccc(-c2nc3ccc(Br)cn3c2Nc2ccc(C)cc2)cc1

RP-LC retention time | Structure (SMILES)
806 s | COCCCNC(=O)c1ccc(-c2cnc(NC3CCCCC3)nc2)cc1
596 s | Cc1noc(C)c1CN1CCC(NC(=O)c2ccc3cc[nH]c3c2)CC1
697 s | O=C(O)c1ccc(Nc2c(-c3ccccc3)nc3cnccn23)cc1
654 s | Cc1cc(-n2nnc(C(=O)O)c2-c2ccncc2)ccc1F
766 s | COc1cccc(-c2nc(-c3ccc4ncn(C(C)C)c4c3)no2)c1OC
841 s | CCCN1C(=O)COc2cc(-c3noc(C(=O)NC4CC4)n3)ccc21
651 s | CCc1nc2cc3c(cc2n1CC(=O)NC(C)c1ccccc1)OCCO3 (stereo unspecified)
674 s | CCc1ccccc1NC(=O)Cn1nc2n(c1=O)CCCC2
812 s | CCCN(CCC)c1nc(C(=O)OCC)nc2ccccc12
782 s | O=C(NCc1ccco1)c1ccc2ccnc(N3CCN(c4ccc(F)cc4)CC3)c2c1
780 s | Cc1ccsc1C(=O)N1CCC2(CCCCO2)CC1
855 s | Cc1nc(NC2CCCCC2)sc1C(=O)Nc1ccc(F)cc1F
641 s | CS(=O)(=O)N1CCc2nn(Cc3ccccc3)c(=O)n2CC1
672 s | O=C(Cc1nnc(-c2ccc3ncccc3c2)o1)NCc1ccccc1
1100 s | O=c1ccc(-c2ccccc2)nn1Cc1nc(-c2ccc(Br)cc2)no1
849 s | COCCC1CCN(C(=O)COc2ccc(Cl)cc2)CC1
809 s | Cc1nc(-c2ccc(OC3CCN(C(=O)NCC(C)C)C3)cc2)no1 (stereo unspecified)
812 s | CC1(c2ccccc2)NN=C2Oc3ccccc3N21 (stereo unspecified)
522 s | O=C(NCCn1ncccc1=O)c1ccc(N2CCCC2)nn1
862 s | CC(C)Cn1nc2ccc(S(=O)(=O)N3CCC(C)CC3)cn2c1=O
803 s | Cc1cc(Cl)ccc1NC(=O)C1CCCN(c2nnc(C)c3c(C)n(-c4ccccc4)nc23)C1 (stereo unspecified)
809 s | COc1ccc(OC)c(S(=O)(=O)N2CCC([C@H]3[C@@H](OC)C(=O)N3C(C)C)CC2)c1
821 s | Cc1ccc(N2CC(C(=O)Nc3cc(-c4ccco4)no3)CC2=O)cc1 (stereo unspecified)
966 s | Cc1oc(C2CCN(S(=O)(=O)c3ccc(C(C)C)cc3)CC2)nc1C(=O)N(C)C
